One assay addresses T1, IDO enzyme (Homo sapiens, UniProt P14902).
T1 construct: made in house; host or cells: E. coli BL21 (pET28a-IDO plasmid)
The experiment in a line: IDO enzyme inhibitory activity test. It counts as biochemical. The following applies: recombinant IDO, D-Trp substrate, reading at 321 nm for 40 min. Here is the method:
(1) Induced Expression and Purification Method of IDO Protein
Firstly, DO gene was amplified with PCR, and the amplified PCR product was recycled. Digestion (2 h under 37° C.), gel running and recycling were carried out on the pET28a plasmid (purchased from Shanghai Baomanbio Co., Ltd.) and IDO gel with two restriction enzymes (EcoR I and Xho I). T4 ligase was connected with the product overnight, added into DH5α competence, placed on the ice for 30 min and subjected to thermal shock at 42° C. for 90 s.
BL21 which contained pET28a-IDO plasmid was shaken vigorously at 37° C. till OD600 was 0.6-0.8, added into hemin (final concentration: 40 μM) and 0.5 mM IPTG (isopropyl-3-D-IPTG) and induced under 16° C. for 20 h; after induction, thallus were collected centrifugally at 4° C. and 6,000 rpm, washed with 50 mM PBS (pH 7.5) and collected again centrifugally.
The collected thallus were suspended again with buffer solution (50 mM PBS pH 7.5). An appropriate amount of 100×PMSF was added. The thallus were disrupted with cell disruption instrument (1,400 bar) at 4° C. for three times. The split bacteria were centrifuged at 18,000×g for 45 min. The sediment was removed but supernatant was retained and filtered with a 0.45 μm film at 4° C.; the nickel column was balanced with lysis buffer (50 mM PBS pH7.5) by 3 column volumes.
The supernatant was loaded on the nickel column and washed with wash solution (50 mM PBS pH7.5, 50 mM imidazole) by 4 column volume. Finally, protein was eluted with eluant (50 mM PBS pH7.5, 250 mM imidazole); dialyzed for 6 h with dialysis solution (50 mM PBS pH7.5), concentrated, sub-packaged, quickly frozen with liquid nitrogen and stored at −80° C. for backup.
(2) Test Method for IDO Enzyme Inhibitory Activity
Firstly, the compound was diluted by triple gradient. 1 μL of each concentration was added into a 96-well plate; 50 μL of IDO Enzyme solution PBS (pH 7.5; final concentration: 50 mM) was added: 25 μL of substrate 1 (methylene blue, final concentration: […]; catalase, final concentration: 0.2 μg/L; PBS (pH 7.5; final concentration: 50 mM) mixture and 25 μL of substrate 2 (D-Trp, final concentration: 1.5 mM; sodium ascorbate, final concentration: 20 mM; PBS (pH 7.5), final concentration 50 mM) mixture were added for starting the reaction. Finally, OOD321 nm reading was carried out for 40 min.

In a further assay the target is T2, IDO in Hela cells (Homo sapiens, UniProt P14902).
T2 construct: endogenous in cells; host or cells: HeLa cells stimulated with human interferon γ
T2 sequence (P14902 whole entry): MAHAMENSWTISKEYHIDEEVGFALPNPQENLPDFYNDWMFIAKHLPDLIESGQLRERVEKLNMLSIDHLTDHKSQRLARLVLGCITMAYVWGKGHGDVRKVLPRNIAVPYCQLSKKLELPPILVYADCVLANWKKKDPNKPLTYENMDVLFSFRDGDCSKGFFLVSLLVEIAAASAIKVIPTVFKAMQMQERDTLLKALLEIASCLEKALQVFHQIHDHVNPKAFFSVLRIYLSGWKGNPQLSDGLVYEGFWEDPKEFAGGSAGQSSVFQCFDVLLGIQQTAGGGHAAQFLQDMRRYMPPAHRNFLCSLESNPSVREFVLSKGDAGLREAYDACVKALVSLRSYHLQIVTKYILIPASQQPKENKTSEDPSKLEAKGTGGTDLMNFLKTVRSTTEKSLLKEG
The experiment in a line: Test of cellular activity (kynurenine formation in interferon γ stimulated Hela cells). It counts as cell-based. The following applies: head prints IPS cells, method: Hela cells, 48 h incubation, read at 480 nm. Here is the method: (3) Test Method of Cellular Activity
Hela cells (80 μL) was inoculated on a 96-well plate (5×10^3 for each well) to grow overnight. After the compound was diluted the next day, 1 μL of diluent and 100 μL of culture medium which contains human interferon γ (final concentration: 50 ng/m) were added into the 96-well plate to make the final volume reach […]. After incubating for 48 h, 80 μL of supernate was transferred from each well to a new […]. 10 μL 6.1N trichloroacetic acid was added into each well for mixing and incubation at 50° C. for 30 min, and […] N formyl-kynurenin into kynurenine. The reaction mixture was centrifuged at 2,500 rpm for 10 min, 70 μL of supernatant of each well was transferred to a new 96-well plate and mixed with 100 μL of 2% (w/v) dimethylaminobenzaldehyde acetic acid solution. After placing for 5-10 min, measurement was carried out at 480 nm with the SPECTRAmax i13 reader.

Here are results for 17 compounds from patent publication US20210047290A1, “SPIRO COMPOUND AS INDOLEAMINE-2,3-DIOXYGENASE INHIBITOR” (SHANGHAI INSTITUTE OF ORGANIC CHEMISTRY, CHINESE ACADEMY OF …, priority 2018, published 2021).

pIC50: −log10 of the molar value.

T1 sequence (P14902 whole entry): as above

As usually defined, the pIC50 is the negative decadic logarithm of the IC50, by convention in mol/L. `O=C(Nc1ccc(F)cc1)C1CC12CCC(c1ccnc3ccc(F)cc13)CC2` (racemic) [Example 5, (±)-(cis/trans)-N-(4-fluorophenyl)-6-(6-fluoroquinolin-4-yl)spiro[2.5]octane-1-carboxamide]: the pIC50 on IDO enzyme is 6.48; against IDO in Hela cells, under 8.52.

As for `O=C(Nc1ccc(Cl)cc1)C1CC2(C1)CC(c1ccnc3ccccc13)C2` (racemic) [Example 1, (±)-N-(4-chlorophenyl)-6-(quinolin-4-yl)spiro[3.3]heptane-2-carboxamide], the negative-log IC50 (pIC50) at IDO enzyme is 5.96; at IDO in Hela cells, under 7.30.

Consider `O=C(NC1CC2(CCC(c3ccnc4ccc(F)cc34)CC2)C1)c1ccc(F)cc1` (racemic) [Example 21, (±) 4-fluoro-N-(7-(6-fluoroquinolin-4-yl)spiro[3.5]nonan-2-yl)benzamide], for which the negative-log IC50 (pIC50) at IDO enzyme is 6.32; against IDO in Hela cells it was under 8.00.

Consider `O=C(Nc1ccc(Cl)cc1)C1CC12CCC(c1ccnc3ccccc13)CC2` (racemic) [Example 2A, (±)-(cis/trans)-N-(4-chlorophenyl)-6-(quinolin-4-yl)spiro[2.5]octane-1-carboxamide], for which the pIC50 at IDO enzyme is 5.89; against IDO in Hela cells, under 7.30.

For `O=C(Nc1ccc(Cl)cc1)C1CC2(CCC(c3ccnc4ccc(F)cc34)CC2)C1` (single isomer, unassigned) [Example 15A, N-(4-chlorophenyl)-7-(6-fluoroquinolin-4-yl)spiro[3.5]nonane-2-carboxamide], the pIC50 at IDO enzyme is 5.44; against IDO in Hela cells, under 8.00.

For the compound `O=C(Nc1ccc(Br)cc1)C1CC2(CCC(c3ccnc4ccc(F)cc34)CC2)C1` (racemic) [Example 18, (±) N-(4-bromophenyl)-7-(6-fluoroquinoline-4-yl)spiro[3.5]nonane-2-carboxamide], the pIC50 is 6.70 on IDO enzyme and 8.60 on IDO in Hela cells.

As for `O=C(NC1CCC12CCC(c1ccnc3ccc(F)cc13)CC2)c1ccc(Cl)cc1` (racemic) [Example 12B, (±) 4-chloro-N-(7-(6-fluoroquinolin-4-yl)spiro[3.5]nonan-1-yl)benzamide], the pIC50 on IDO enzyme is 5.93; on IDO in Hela cells, under 7.52.

`O=C(NC1CC12CCC(c1ccnc3ccc(F)cc13)CC2)c1ccc(Cl)cc1` (racemic) [Example 8, (±)-(cis/trans)-4-chloro-N-(6-(6-fluoroquinolin-4-yl)spiro[2.5]octan-1-yl)benzamide]: the pIC50 is 6.00 at IDO enzyme and under 7.52 against IDO in Hela cells.

Regarding `O=C(NC1CC2(CCC(c3ccnc4ccc(F)cc34)CC2)C1)c1ccc(Br)cc1` (racemic) [Example 20, (±) 4-bromo-N-(7-(6-fluoroquinolin-4-yl)spiro[3.5]nonan-2-yl)benzamide], the pIC50 at IDO enzyme was 5.62; against IDO in Hela cells, under 8.00.

On to `O=C(Nc1ccc(Cl)cc1)C1CC2(CCC(c3ccnc4ccc(F)cc34)CC2)C1` (single isomer, unassigned) [Example 15B, N-(4-chlorophenyl)-7-(6-fluoroquinolin-4-yl)spiro[3.5]nonane-2-carboxamide], for which the values for the pIC50 at IDO enzyme and against IDO in Hela cells were 6.40 and 8.60, respectively.

Turning to `O=C(Nc1ccc(Cl)cc1)C1CCC12CCC(c1ccnc3ccc(F)cc13)CC2` (single isomer, unassigned) [Example 10A, (±) N-(4-chlorophenyl)-7-(6-fluoroquinolin-4-yl)spiro[3.5]nonane-1-carboxamide], the figures for the pIC50 on IDO enzyme and at IDO in Hela cells were 6.28 and under 8.52, respectively.

Turning to `O=C(Nc1ccc(C(F)(F)F)cc1)C1CC12CCC(c1ccnc3ccc(F)cc13)CC2` (racemic) [Example 6, (±)-(cis/trans)-6-(6-fluoroquinolin-4-yl)-N-(4-trifluoromethyl)phenyl)spiro[2.5]octane-1-carboxamide], the pIC50 was 6.33 on IDO enzyme and under 8.40 against IDO in Hela cells.

As for `O=C(Nc1ccc(Cl)cc1)C1CCC12CCC(c1ccnc3ccc(F)cc13)CC2` (single isomer, unassigned) [Example 10B, (±) N-(4-chlorophenyl)-7-(6-fluoroquinolin-4-yl)spiro[3.5]nonane-1-carboxamide], the pIC50 on IDO enzyme was 5.68.

Consider `O=C(Nc1ccc(F)cc1)C1CC2(CCC(c3ccnc4ccc(F)cc34)CC2)C1` (racemic) [Example 19, (±) N-(4-fluorophenyl)-7-(6-fluoroquinolin-4-yl)spiro[3.5]nonane-2-carboxamide], for which the pIC50 at IDO enzyme was 6.40; on IDO in Hela cells it was 8.47.

In the case of `O=C(Nc1ccc(Cl)cc1)C1CC12CCC(c1ccnc3ccc(F)cc13)CC2` (racemic) [Example 4, (±)-(cis/trans)-N-(4-chlorophenyl)-6-(6-fluoroquinolin-4-yl)spiro[2.5]octane-1-carboxamide], the pIC50 was 6.80 at IDO enzyme and 7.66 on IDO in Hela cells.

`O=C(NC1CCC12CCC(c1ccnc3ccc(F)cc13)CC2)c1ccc(Cl)cc1` (racemic) [Example 12A, (±) 4-chloro-N-(7-(6-fluoroquinolin-4-yl)spiro[35]nonan-1-yl)benzamide]: the pIC50 at IDO enzyme was 5.92.

With `O=C(Nc1ccc(Cl)cc1)C1CC2(C1)CC(c1ccnc3ccc(F)cc13)C2` (racemic) [Example 3, (±) N-(4-chlorophenyl)-6-(6-fluoroquinolin-4-yl)spiro[3.3]heptane-2-carboxamide], the pIC50 on IDO enzyme is 6.20; at IDO in Hela cells, under 8.52.
